Assay results from patent publication US20160168540A1, “COMPOSITION FOR MAINTAINING PLATELET FUNCTION” (KYOTO UNIVERSITY, priority 2013, published 2016).

Target: T1, TACE (ADAM17) (Homo sapiens, UniProt P78536)
T1 construct: made in house; host or cells: mammalian cells or insect cells
Experiment: TACE (ADAM17) inhibition test
Assay type: biochemical
Details: fluorescent synthetic substrate, 37° C. for 1.5 hours; read-out: TACE IC50
Text: The nucleotide sequence of TACE has been reported by Moss et al. (Moss, M. L. et al., Nature 1997, vol. 385, pp. 733-736). Based on this information, the cDNA of TACE was obtained according to the prescribed method from THP-1 cells or the like, and then incorporated the cDNA into an expression vector. Next, this vector was transformed into mammalian cells or insect cells, and TACE protein was expressed. The TACE protein was isolated, and used as an enzyme. Further, a fluorescent synthetic substrate Nma(N-methylanthranilic acid)-Leu-Ala-Gln-Ala-Val-Arg-Ser-Ser-Lys(Dnp(dinitrophenyl))-D-Arg-NH2 including the TACE-cleaved sequence of a membrane-bound TNF was used as a substrate. The enzyme reaction was carried out by adding 1.8 μL of a solution of the test substance to 90 μL of a fluorescent synthetic substrate prepared with an assay buffer B (50 mM tris-hydrochloric acid buffer (pH 7.5) including 200 mM sodium chloride, 5 mM calcium chloride, 10 μM zinc sulfate, and 0.05% PLURONIC F-68), then mixing 90 μL of a TACE enzyme solution prepared with an assay buffer A (50 mM tris-hydrochloric acid buffer (pH 7.5) including 200 mM sodium chloride, 5 mM calcium chloride, 10 μM zinc sulfate, and 2 mg/mL bovine serum albumin) and reacting at 37° C. for 1.5 hours. Enzyme activity was then determined by measuring with a fluorescence intensity meter (Labsystems, Fluoroskan Ascent) at an excitation wavelength of 355 nm and a measurement wavelength of 460 nm. The 50% inhibitory concentration (IC50) of the test substances was calculated by comparing enzyme activity in the presence and the absence of the test substance to determine the inhibition rate. Further, test substances having an IC50 strength of less than 100 nM were evaluated as “A”, and test substances having an IC50 strength of 100 nM or more were evaluated as “B”.

T1 sequence (P78536 215-824): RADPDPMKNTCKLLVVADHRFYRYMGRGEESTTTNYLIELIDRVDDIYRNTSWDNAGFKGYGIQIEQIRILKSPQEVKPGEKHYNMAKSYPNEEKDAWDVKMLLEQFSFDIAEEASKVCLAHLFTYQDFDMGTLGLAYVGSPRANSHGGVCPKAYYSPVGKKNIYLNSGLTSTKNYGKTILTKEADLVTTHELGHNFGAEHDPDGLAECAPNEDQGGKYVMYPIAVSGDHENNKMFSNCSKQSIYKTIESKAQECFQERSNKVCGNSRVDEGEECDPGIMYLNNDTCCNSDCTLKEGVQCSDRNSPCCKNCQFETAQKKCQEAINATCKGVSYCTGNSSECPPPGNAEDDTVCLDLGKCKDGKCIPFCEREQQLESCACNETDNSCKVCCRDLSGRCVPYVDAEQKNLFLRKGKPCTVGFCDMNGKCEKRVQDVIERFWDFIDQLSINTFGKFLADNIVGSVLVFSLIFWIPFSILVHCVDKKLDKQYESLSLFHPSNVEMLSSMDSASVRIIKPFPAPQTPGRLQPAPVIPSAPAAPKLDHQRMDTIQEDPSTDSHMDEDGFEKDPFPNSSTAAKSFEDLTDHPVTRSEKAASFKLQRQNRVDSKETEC

SMILES | IC50
COc1cccn(CC2(c3ccccc3)NC(=O)NC2=O)c1=O (racemic) [Compound I-143] | ≥ 0.1 µM
COc1ccc(C)cc1C1(Cn2cccc(C)c2=O)NC(=O)NC1=O (racemic) [Compound I-76] | ≥ 0.1 µM
Cc1cccn(CC2(c3ccc(Sc4ccccc4)cc3)NC(=O)NC2=O)c1=O (racemic) [Compound I-102] | < 0.1 µM
COc1cccc(C2(Cn3cccc(C)c3=O)NC(=O)NC2=O)c1 (racemic) [Compound I-4, 5-(3-methoxyphenyl)-5-[(3-methyl-2-oxopyridin-1(2H)-yl)methyl]imidazolidine-2,4-dione] | < 0.1 µM
O=C1NC(=O)C(Cn2ccccc2=O)(c2ccc(Cc3ccccc3)cc2)N1 (racemic) [Compound I-156] | ≥ 0.1 µM
Cc1cccn(CC2(c3cccc(C#CC(C)(C)C)c3)NC(=O)NC2=O)c1=O (racemic) [Compound I-63] | ≥ 0.1 µM
Cc1cccn(CC2(c3cccc(F)c3)NC(=O)NC2=O)c1=O (racemic) [Compound I-28, 5-(3-fluorophenyl)-5-[(3-methyl-2-oxopyridin-1(2H)-yl)methyl]imidazolidine-2,4-dione] | < 0.1 µM
Cc1cccn(CC2(c3ccc(OCc4ccccc4)cc3)NC(=O)NC2=O)c1=O (racemic) [Compound I-64] | < 0.1 µM
Cc1cccn(CC2(c3cccc(OC(F)(F)F)c3)NC(=O)NC2=O)c1=O (racemic) [Compound I-67] | < 0.1 µM
O=C1NC(=O)C(Cn2cccc(Br)c2=O)(c2ccc(F)c(F)c2)N1 (racemic) [Compound I-147] | < 0.1 µM
COc1ccccc1Oc1ccc(C2(Cn3cccc(C)c3=O)NC(=O)NC2=O)cc1 (racemic) [Compound I-113] | < 0.1 µM
Cc1cccn(CC2(c3cc(F)ccc3F)NC(=O)NC2=O)c1=O (racemic) [Compound I-154] | < 0.1 µM
Cc1cccn(CC2(c3ccc(OCc4ccc(F)cc4)cc3)NC(=O)NC2=O)c1=O (racemic) [Compound I-88] | < 0.1 µM
N#Cc1ccc(C2(Cn3cccc(C(F)(F)F)c3=O)NC(=O)NC2=O)cc1 (racemic) [Compound I-142] | < 0.1 µM
COc1cccc(Oc2ccc(C3(Cn4cccc(C)c4=O)NC(=O)NC3=O)cc2)c1 (racemic) [Compound I-83] | < 0.1 µM
C=C(C)c1ccc(C2(Cn3cccc(C)c3=O)NC(=O)NC2=O)cc1 (racemic) [Compound I-108] | < 0.1 µM
Cc1cc(C2(Cn3cccc(C)c3=O)NC(=O)NC2=O)ccc1OC1CCCCC1 (racemic) [Compound I-131] | < 0.1 µM
Cc1cccc(Oc2ccc(C3(Cn4cccc(C)c4=O)NC(=O)NC3=O)cc2)c1 (racemic) [Compound I-80] | < 0.1 µM
O=C1NC(=O)C(Cn2cccc(CO)c2=O)(c2ccc(Cc3ccccc3)cc2)N1 (racemic) [Compound I-151] | ≥ 0.1 µM
Cc1cccn(CC2(c3ccc4c(c3)OCCO4)NC(=O)NC2=O)c1=O (racemic) [Compound I-59] | < 0.1 µM
Cc1cccn(CC2(c3ccc(-c4ccc(F)cc4)cc3)NC(=O)NC2=O)c1=O (racemic) [Compound I-75] | < 0.1 µM
O=C1NC(=O)C(Cn2cccc(Br)c2=O)(c2ccccc2)N1 (racemic) [Compound I-139] | < 0.1 µM
COc1ccccc1C1(Cn2cccc(C)c2=O)NC(=O)NC1=O (racemic) [Compound I-60] | ≥ 0.1 µM
COc1ccc(C2(Cn3cccc(C)c3=O)NC(=O)NC2=O)cc1OC (racemic) [Compound I-16, 5-(3,4-dimethoxyphenyl)-5-[(3-methyl-2-oxopyridin-1(2H)-yl)methyl]imidazolidine-2,4-dione] | < 0.1 µM
O=C1NC(=O)C(Cn2cccc(Cl)c2=O)(c2cc3ccccc3o2)N1 (racemic) [Compound I-51, 5-(benzofuran-2-yl)-5-[(3-chloro-2-oxopyridin-1(2H)-yl)methyl]imidazolidine-2,4-dione] | < 0.1 µM
Cc1cccn(CC2(c3ccc(Oc4cccc(F)c4)c(F)c3)NC(=O)NC2=O)c1=O (racemic) [Compound I-112] | < 0.1 µM
N#Cc1ccc(C2(Cn3cccc(F)c3=O)NC(=O)NC2=O)cc1 (racemic) [Compound I-134] | < 0.1 µM

The next lines start with the values.

IC50 | SMILES
< 0.1 µM | Cc1ccccc1Oc1ccc(C2(Cn3cccc(C)c3=O)NC(=O)NC2=O)cc1 (racemic) [Compound I-35, 5-[(3-methyl-2-oxopyridin-1(2H)-yl)methyl]-5-[4-(o-tolyloxy)phenyl]imidazolidine-2,4-dione]
< 0.1 µM | Cc1cccn(CC2(c3ccc(Oc4ccccc4)cc3)NC(=O)NC2=O)c1=O (racemic) [Compound I-9, 5-[(3-methyl-2-oxopyridin-1(2H)-yl)methyl]-5-(4-phenoxyphenyl)imidazolidine-2,4-dione]
< 0.1 µM | Cc1cccn(CC2(c3ccc(-c4ccncc4)cc3)NC(=O)NC2=O)c1=O (racemic) [Compound I-31, 5-[(3-methyl-2-oxopyridin-1(2H)-yl)methyl]-5-[4-(pyridin-4-yl)phenyl]imidazolidine-2,4-dione]
< 0.1 µM | COc1cc(C2(Cn3cccc(C)c3=O)NC(=O)NC2=O)ccc1F (racemic) [Compound I-12, 5-(4-fluoro-3-methoxyphenyl)-5-[(3-methyl-2-oxopyridin-1(2H)-yl)methyl]imidazolidine-2,4-dione]
< 0.1 µM | Cc1cccn(CC2(c3ccc(-c4cccnc4)cc3)NC(=O)NC2=O)c1=O (racemic) [Compound I-32, 5-[(3-methyl-2-oxopyridin-1(2H)-yl)methyl]-5-[4-(pyridin-3-yl)phenyl]imidazolidine-2,4-dione]
< 0.1 µM | O=C1NC(=O)C(Cn2cccc(F)c2=O)(c2ccccc2)N1 (racemic) [Compound I-132]
< 0.1 µM | Cc1cccn(CC2(c3ccc(OC(F)F)cc3)NC(=O)NC2=O)c1=O (racemic) [Compound I-78]
< 0.1 µM | Cc1cccn(CC2(c3cc(F)c(F)cc3F)NC(=O)NC2=O)c1=O (racemic) [Compound I-29, 5-[(3-methyl-2-oxopyridin-1(2H)-yl)methyl]-5-(2,4,5-trifluorophenyl)imidazolidine-2,4-dione]
< 0.1 µM | Cc1cccn(CC2(c3ccc(CC(C)C)cc3)NC(=O)NC2=O)c1=O (racemic) [Compound I-121]
< 0.1 µM | Cc1cccn(CC2(c3ccc(Oc4ccccc4F)c(F)c3)NC(=O)NC2=O)c1=O (racemic) [Compound I-104]
< 0.1 µM | Cc1cccn(CC2(c3ccc(Cc4ccccc4)cc3)NC(=O)NC2=O)c1=O (racemic) [Compound I-40, 5-(4-benzylphenyl)-5-[(3-methyl-2-oxopyridin-1(2H)-yl)methyl]imidazolidine-2,4-dione]
< 0.1 µM | COc1ccccc1Oc1ccc(C2(Cn3cccc(C)c3=O)NC(=O)NC2=O)cc1F (racemic) [Compound I-114]
< 0.1 µM | COc1cccc(-c2ccc(C3(Cn4cccc(C)c4=O)NC(=O)NC3=O)cc2)c1 (racemic) [Compound I-73]
< 0.1 µM | Cc1cccn(CC2(c3ccc(C#CC(C)(C)C)cc3)NC(=O)NC2=O)c1=O (racemic) [Compound I-33, 5-[4-(3,3-dimethylbut-1-yn-1-yl)phenyl]-5-[(3-methyl-2-oxopyridin-1(2H)-yl)methyl]imidazolidine-2,4-dione]
< 0.1 µM | COc1cc(F)ccc1C1(Cn2cccc(C)c2=O)NC(=O)NC1=O (racemic) [Compound I-21, 5-(4-fluoro-2-methoxyphenyl)-5-[(3-methyl-2-oxopyridin-1(2H)-yl)methyl]imidazolidine-2,4-dione]
